Patent US11339156B2, “3-(1H-pyrazol-4-yl)pyridine allosteric modulators of the M4 muscarinic acetylcholine receptor” (Merck Sharp & Dohme Corp., priority 2017, dated 2022)

Each molecule was assayed against T1, human M4 muscarinic acetylcholine receptor (Homo sapiens, UniProt P08173) (assay: human FLIPR-based M4 PAM assay (CHO-K1 cells with human M4 receptor and Gαqi5, calcium dye fluorescence)). Conditions: inflection point of 4 parameter logistic fit; acetylcholine added at 20% of maximum response; read-out: M4PAM IP.
T1 construct: expressed in transfected cells
T1 sequence (P08173 1-479): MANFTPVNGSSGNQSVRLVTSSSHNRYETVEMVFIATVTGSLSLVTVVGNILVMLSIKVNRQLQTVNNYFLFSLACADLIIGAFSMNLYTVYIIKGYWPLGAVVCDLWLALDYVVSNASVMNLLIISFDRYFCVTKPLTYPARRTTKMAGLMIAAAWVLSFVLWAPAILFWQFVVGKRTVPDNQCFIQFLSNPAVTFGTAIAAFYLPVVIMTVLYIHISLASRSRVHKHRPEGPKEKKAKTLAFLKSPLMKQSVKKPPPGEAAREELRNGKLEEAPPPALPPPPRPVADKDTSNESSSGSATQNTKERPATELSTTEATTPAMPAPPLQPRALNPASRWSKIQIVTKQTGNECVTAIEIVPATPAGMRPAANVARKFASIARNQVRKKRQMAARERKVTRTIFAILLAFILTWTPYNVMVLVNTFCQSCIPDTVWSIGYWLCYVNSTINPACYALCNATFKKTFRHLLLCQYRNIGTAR
Assay type: cell-based
Description: In a typical experiment the M4 muscarinic acetylcholine receptor modulating activity of the compounds of the present invention was determined in accordance with the following experimental method. CHO-K1 cells stably transfected with human M4 receptor and chimeric G-protein Gαqi5 (Coward P, et al., Analytical Biochemistry, 270:242-248 (1999)) are thawed from liquid N2 storage, resuspended in growth medium, plated in black, clear bottom 384 well plates, and incubated 16-20 hours at 37° C., 5% CO2. On the day of assay, growth medium is removed, the cells are washed 2 times with wash buffer, and cells are incubated in dye loading buffer at 37° C., 5% CO2 for ˜1 hour. Following dye loading the cell plates are placed in a FLIPR Tetra instrument and while monitoring dye fluorescence (excitation […]), 10 uL of test substance at increasing concentrations is added, and fluorescence values are recorded for 4 min. Next, 10 uL of acetylcholine is added (final concentration calculated so as to achieve 20% of the maximum acetycholine response), and the fluorescence reading is continued for 3.5 min. In some cases, a third addition of acetylcholine (final concentration calculated to achieve 70% of the maximal acetylcholine response) is performed. The resulting dose response curves are fit to a 4 parameter logistic equation and the final result is determined as the inflection point (IP) of the curve
CHO-K1 cells stably transfected with human M4 receptor and chimeric G-protein Gαqi5 are thawed from liquid N2 storage, resuspended in growth medium, plated in black, clear bottom 384 well plates, and incubated 16-20 hours at 37° C., 5% CO2.
On the day of assay, growth medium is removed, the cells are washed 2 times with wash buffer, and cells are incubated in dye loading buffer at 37° C., 5% CO2 for ˜1 h. Following dye loading the cell plates are placed in a FLIPR Tetra instrument and while monitoring dye fluorescence ([…]), 10 uL of test substance at increasing concentrations is added, and fluorescence values are recorded for 4 min. Next, 10 uL of acetylcholine is added (final concentration calculated so as to achieve 20% of the maximum acetycholine response), and the fluorescence reading is continued for 3.5 min. In some cases, a third addition of acetylcholine (final concentration calculated to achieve 70% of the maximal acetylcholine response) is performed.
In the case of Cc1ccc(-c2cnn(CCC(C)(C)F)c2)c(-c2ccc3c(c2)C(=O)NC3)n1 [Example 10, 6-{3-[1-(3-fluoro-3-methylbutyl)-1H-pyrazol-4-yl]-6-methylpyridin-2-yl}-2,3-dihydro-1H-isoindol-1-one], the EC50 is reported as 130 nM. For CN1Cc2ccc(-c3nc(Cl)ccc3-c3cnn(CC4CCCCC4)c3)cc2C1=O [Example 115, 6-{6-chloro-3-[1-(cyclohexylmethyl)-1H-pyrazol-4-yl]pyridin-2-yl}-2-methyl-2,3-dihydro-1H-isoindol-1-one], the EC50 was 31.7 nM. Molecule CC(C)CCn1cc(-c2cc(Cl)cnc2-c2ccc3cn(C)nc3c2)cn1 [Example 77, 6-{5-chloro-3-[1-(3-methylbutyl)-1H-pyrazol-4-yl]pyridin-2-yl}-2-methyl-2H-indazole] has an EC50 of 278 nM. In the case of CC(C)(C)Cn1cc(-c2ccc(C#N)nc2-c2ccn3nc(CO)nc3c2)cn1 [Example 73, 5-[1-(2,2-dimethylpropyl)-1H-pyrazol-4-yl]-6-[2-(hydroxymethyl)[1,2,4]triazolo[1,5-a]pyridin-7-yl]pyridine-2-carbonitrile], the EC50 is reported as 126 nM. CN1Cc2ccc(-c3nc(C#N)c(F)cc3-c3cnn(CC4(C(F)(F)F)CC4)c3)cc2C1=O [Example 54, 3-fluoro-6-(2-methyl-3-oxo-2,3-dihydro-1H-isoindol-5-yl)-5-(1-{[1-(trifluoromethyl)cyclo-propyl]methyl}-1H-pyrazol-4-yl)pyridine-2-carbonitrile] gave an EC50 of 44.7 nM. With N#Cc1ccc(-c2cnn(CC3CC34CC4)c2)c(-c2ccn3ccnc3c2)n1 (stereo not shown) [Example 51, 6-imidazo[1,2-a]pyridin-7-yl-5-[1-(spiro[2.2]pent-1-ylmethyl)-1H-pyrazol-4-yl]pyridine-2-carbonitrile] the EC50 was 54.6 nM. With Cc1cc(-c2cnn(CC3(C(F)(F)F)CC3)c2)c(-c2ccn3ccnc3c2)nc1Cl [Example 60, 7-[6-chloro-5-methyl-3-(1-{[1-(trifluoromethyl)cyclo-propyl]methyl}-1H-pyrazol-4-yl)pyridin-2-yl]imidazo[1,2-a]pyridine] the EC50 was 64.3 nM. In the case of CC(C)C1(Cn2cc(-c3ccc(C#N)nc3-c3ccn4ccnc4c3)cn2)CC1 [Example 36, 6-imidazo[1,2-a]pyridin-7-yl-5-(1-{[1-(1-methylethyl)cyclo-propyl]methyl}-1H-pyrazol-4-yl)pyridine-2-carbonitrile], the EC50 is reported as 37.4 nM. Cc1cn2ccc(-c3nc(C#N)ccc3-c3cnn(CC(C)(C)CC(F)(F)F)c3)cc2n1 [Example 16, 6-(2-methylimidazo[1,2-a]pyridin-7-yl)-5-[1-(4,4,4-trifluoro-2,2-dimethylbutyl)-1H-pyrazol-4-yl]pyridine-2-carbonitrile] gave an EC50 of 61.7 nM. Work on FC(F)(F)C1(Cn2cc(-c3ccc(Cl)nc3-c3ccn4ccnc4c3)cn2)CC1 [Example 59, 7-[6-chloro-3-(1-{[1-(trifluoromethyl)cyclo-propyl]methyl}-1H-pyrazol-4-yl)pyridin-2-yl]imidazo[1,2-a]pyridine] yielded an EC50 of 65.4 nM. Work on CC(C)(C)Cn1cc(-c2ccc(C#N)nc2-c2ccn3ncnc3c2)cn1 [Example 72, 5-[1-(2,2-dimethylpropyl)-1H-pyrazol-4-yl]-6-[1,2,4]triazolo[1,5-a]pyridin-7-ylpyridine-2-carbonitrile] yielded an EC50 of 136 nM. Cc1cn2ncc(-c3nc(C#N)ccc3-c3cnn(CC(C)(C)C)c3)cc2n1 [Example 88, 5-[1-(2,2-dimethylpropyl)-1H-pyrazol-4-yl]-6-(2-methylimidazo[1,2-b]pyridazin-7-yl)pyridine-2-carbonitrile] gave an EC50 of 68.7 nM. Molecule CC(C)(Cn1cc(-c2ccc(C#N)nc2-c2ccn3ccnc3c2)cn1)C(F)F [Example 107, 5-[1-(3,3-difluoro-2,2-dimethylpropyl)-1H-pyrazol-4-yl]-6-imidazo[1,2-a]pyridin-7-ylpyridine-2-carbonitrile] has an EC50 of 32.1 nM. Molecule Cc1cn2ccc(-c3nc(C#N)ccc3-c3cnn(CC4(CC(C)C)CC4)c3)cc2n1 [Example 35, 6-(2-methylimidazo[1,2-a]pyridin-7-yl)-5-(1-{[1-(2-methylpropyl)cyclo-propyl]methyl}-1H-pyrazol-4-yl)pyridine-2-carbonitrile] has an EC50 of 108 nM. Molecule Cc1ccc(-c2cnn(CC3CCC(F)(F)CC3)c2)c(-c2ccc3c(c2)C(=O)N(CC2CC2)C3)n1 [Example 14, 2-(cyclopropylmethyl)-6-(3-{1-[(4,4-difluorocyclohexyl)methyl]-1H-pyrazol-4-yl}-6-methylpyridin-2-yl)-2,3-dihydro-1H-isoindol-1-one] has an EC50 of 48.8 nM. Cc1ccc(-c2cnn(CC(C)(C)C(F)(F)F)c2)c(-c2ccn3ccnc3c2)n1 [Example 26] was tested, and the EC50 was 25.5 nM. Work on CC(C)(Cn1cc(-c2ccc(C(N)=O)nc2-c2ccn3ccnc3c2)cn1)C(F)(F)F [Example 132, 6-(imidazo[1,2-a]pyridin-7-yl)-5-(1-(3,3,3-trifluoro-2,2-dimethylpropyl)-1H-pyrazol-4-yl)picolinamide] yielded an EC50 of 249 nM. For Cc1nc2cc(-c3nc(C#N)ccc3-c3cnn(CCC(C)(F)F)c3)ccc2n1C [Example 27, 5-[1-(3,3-difluorobutyl)-1H-pyrazol-4-yl]-6-(1,2-dimethyl-1H-benzimidazol-5-yl)pyridine-2-carbonitrile], the EC50 was 74 nM. COCc1nc2cc(-c3nc(C#N)ccc3-c3cnn(CC(C)(C)C)c3)ccn2n1 [Example 105, 5-[1-(2,2-dimethylpropyl)-1H-pyrazol-4-yl]-6-[2-(methoxymethyl)[1,2,4]triazolo[1,5-a]pyridin-7-yl]pyridine-2-carbonitrile] was tested, and the EC50 was 70.5 nM. CC1(Cn2cc(-c3ccc(C#N)nc3-c3ccn4ccnc4c3)cn2)CC1(F)F (stereo not shown) [Example 134, 5-(1-((2,2-difluoro-1-methylcyclopropyl)methyl)-1H-pyrazol-4-yl)-6-(imidazo[1,2-a]pyridin-7-yl)picolinonitrile] showed an EC50 of 57.5 nM. In the case of Cc1nc2cc(-c3ncccc3-c3cnn(CC4(F)CC(F)(F)C4)c3)ccn2n1 [Example 130, 2-methyl-7-(3-(1-((1,3,3-trifluorocyclobutyl)methyl)-1H-pyrazol-4-yl)pyridin-2-yl)-[1,2,4]triazolo[1,5-a]pyridine], the EC50 is reported as 381 nM. In the case of Cc1cn2ccc(-c3nc(C#N)ccc3-c3cnn(CCC(C)(C)F)c3)cc2n1 [Example 119, 5-[1-(3-fluoro-3-methylbutyl)-1H-pyrazol-4-yl]-6-(2-methylimidazo[1,2-a]pyridin-7-yl)pyridine-2-carbonitrile], the EC50 is reported as 55.9 nM. Molecule CCC(C)(C)Cn1cc(-c2ccc(C#N)nc2-c2ccn3ccnc3c2)cn1 [Example 91, 5-[1-(2,2-dimethylbutyl)-1H-pyrazol-4-yl]-6-imidazo[1,2-a]pyridin-7-ylpyridine-2-carbonitrile] has an EC50 of 17.1 nM. CC(C)(C)Cn1cc(-c2ccc(C#N)nc2-c2ccc3cnnn3c2)cn1 [Example 84, 5-[1-(2,2-dimethylpropyl)-1H-pyrazol-4-yl]-6-[1,2,3]triazolo[1,5-a]pyridin-6-ylpyridine-2-carbonitrile] gave an EC50 of 235 nM. With CC(C)CCn1cc(-c2cccnc2-c2ccc3c(c2)C(=O)NC3)cn1 [Example 74, 6-{3-[1-(3-methylbutyl)-1H-pyrazol-4-yl]pyridin-2-yl}-2,3-dihydro-1H-isoindol-1-one] the EC50 was 337 nM. With FC(F)(F)C1(Cn2cc(-c3cc(Cl)cnc3-c3ccn4ccnc4c3)cn2)CC1 [Example 57, 7-[5-chloro-3-(1-{[1-(trifluoromethyl)cyclo-propyl]methyl}-1H-pyrazol-4-yl)pyridin-2-yl]imidazo[1,2-a]pyridine] the EC50 was 268 nM. With Cc1ccc(-c2cnn(CCC(C)C)c2F)c(-c2ccn3ccnc3c2)n1 [Example 95, 7-{3-[5-fluoro-1-(3-methylbutyl)-1H-pyrazol-4-yl]-6-methylpyridin-2-yl}imidazo[1,2-a]pyridine] the EC50 was 79.9 nM. With CC(C)(C)Cn1cc(-c2ccc(C#N)nc2-c2ccn3ccnc3c2)cn1 [Example 48, 5-[1-(2,2-dimethylpropyl)-1H-pyrazol-4-yl]-6-imidazo[1,2-a]pyridin-7-ylpyridine-2-carbonitrile] the EC50 was 29.7 nM.
